Patent US20240269170A1, “Treatment of Inflammatory Conditions or Diseases” (Queen Mary University of London, priority 2021, published 2024)

Test system: mononuclear phagocytes
Experiment: Phosphoproteomic analysis of GM-CSF differentiated human monocytes incubated with MCTR3 vs vehicle
Assay type: cell-based
Experimental: FIG. 5: MCTR3 reprograms the arthritic monocyte-derive macrophage transcriptome. A-B) Arthritis was induced and prolonged in C57BL/6 mice by administering 100 μL K/B×N serum i.p. on day 0, 2 and 9. Mice were treated on day 12 i.v. with 2×10^6 monocytes isolated from arthritic mice and incubated either with vehicle (PBS+0.1% DMSO) or 10 μM RG108, a DNMT inhibitor, for 15 min and then with a vehicle (PBS+0.1% EtOH) or 1 nM MCTR3 for 90 min (37° C.). Disease course was monitored daily by assessing A) clinical scores and B) oedema. Results are mean±SEM and expressed as percent change from day of treatment. n=10 mice per group. Statistical differences were evaluated using Two-way ANOVA. (C-E) K/B×N serum (100 μL, i.p.) was administered to mice on days 0, 2 and 9 to induce and prolong inflammatory arthritis. On day 12, mice were treated i.v. with 2×10^6 monocytes isolated from arthritic mice that were previously incubated with either vehicle (PBS+0.1% EtOH) or 1 nM MCTR3 for 90 min. Cells were isolated from paw joints on day 22, sorted for CD45^+ cells and single cell RNA sequencing was performed. […] Results are from n=4 mice per group. (F-G) Monocytes were isolated from human healthy volunteers, these cells were then incubated with GM-CSF (7 days, 37° C.) then with either Vehicle or MCTR3 (1 nM, 37° C.). Cells were lysed and the phosphoproteome determined using mass spectrometry. (F) GO Biological pathway analysis and (G) KEGG pathway analysis for proteins found to be differentially phosphorylated in cells incubated with MCTR3 when compared to those incubated with vehicle. Results are representative of cells from n=3 healthy volunteers per group
To further explore the mechanisms regulated by MCTR3 to reprogram mononuclear phagocytes we next evaluated the signaling pathways activated by MCTR3 using a phosphoproteomic approach. […] This regulation was also observed when using the Kyoto Encyclopaedia of Genes and Genomes pathway database that highlighted an enrichment of spliceosome linked proteins as well as proteins involved in mRNA surveillance by MCTR3. (FIG. 5G and Table 7). […] These findings indicate that MCTR3 promotes the reprograming of mononuclear phagocytes by both regulating epigenetic programs and protein translation to facilitate the termination of inflammation and joint protection. They also support the hypothesis that MCTR3-reprogrammed monocytes recruited into arthritic joints exert their activities via the upregulation of tissue protective pathways. […]
For evaluation of signalling pathways activated by MCTR3, monocytes were isolated from peripheral blood of healthy volunteers, incubated with GM-CSF (20 ng/ml, in RPMI containing 10% human serum) for 7 days and then incubated with MCTR3 (1 nM, in DPBS^+/+).
Phosphoproteomics experiments were performed using mass spectrometry. In brief, cells were lysed in 8M urea buffer and supplemented with phosphatase inhibitors (10 mM Na3VO4, 100 mM B-glycerol phosphate and 25 mM Na2H2P2O7 (Sigma)). Proteins were digested into peptides using trypsin. Phosphopeptides were enriched from total peptides by TiO2 chromatography. Dried phosphopeptides were dissolved in 0.1% TFA and analysed by nanoflow ultimate 3000 RSL nano instrument was coupled on-line to a Q Exactive plus mass spectrometer (Thermo Fisher Scientific). Gradient elution was from 3% to 35% buffer B in 120 min at a flow rate 300 nL/min with buffer A being used to balance the mobile phase (buffer A was 0.1% formic acid in water and B was 0.1% formic acid in acetonitrile). The spray voltage was 1.95 kV and the capillary temperature was set to 255° C. The Q-Exactive plus was operated in data dependent mode with one survey MS scan followed by 15 MS/MS scans. The full scans were acquired in the mass analyser at 375-1500m/z with the resolution of 70 000, and the MS/MS scans were obtained with a resolution of 17 500. […]

[1] = KEGG Pathway, differentially phosphorylated proteins, 1 nM MCTR3 vs vehicle
[2] = Reactome Gene Sets, differentially phosphorylated proteins, 1 nM MCTR3 vs vehicle

CC/C=C\C/C=C\C[C@H](O)[C@@H](/C=C/C=C/C=C\C/C=C\CCC(=O)O)SC[C@H](N)C(=O)O [MCTR3, 13R-cysteinyl, 14S-hydroxy-4Z, 7Z, 9E, 11E, 13R, 14S, 16Z, 19Z-docosahexaenoic acid]
phosphorylation status of SETD2, Histone deacetylase 1 and Histone deacetylase 2 (1 nM MCTR3): regulated
proteins involved in post-transcriptional regulation and protein translation (differential phosphorylation, GO analysis) (1 nM MCTR3): marked regulation
Endocytosis (ko04144) enrichment LogP [1]: −3.117
Fc gamma R-mediated phagocytosis (ko04666) enrichment LogP [1]: −2.545
Glycolysis, core module involving three-carbon compounds (M00002) enrichment LogP [1]: −4.6043
Guanine ribonucleotide biosynthesis IMP => GDP, GTP (M00050) enrichment LogP [1]: −3.0343
Herpes simplex infection (ko05168) enrichment LogP [1]: −2.0881
Neurotrophin signaling pathway (ko04722) enrichment LogP [1]: −2.6025
Notch signaling pathway (ko04330) enrichment LogP [1]: −4.0393
Spliceosome (hsa03040) enrichment LogP [1]: −7.662
Transcriptional misregulation in cancer (ko05202) enrichment LogP [1]: −2.704
mRNA surveillance pathway (ko03015) enrichment LogP [1]: −3.284
parathyroid hormone synthesis, secretion and action (hsa04928) enrichment LogP [1]: −2.088
Apoptotic execution phase (R-HSA-75153) enrichment LogP [2]: −3.842
COPII-mediated vesicle transport (R-HSA-204005) enrichment LogP [2]: −2.4
Diseases of signal transduction by growth factor receptors and second messengers (R-HSA-5663202) enrichment LogP [2]: −4.434
Estrogen-dependent gene expression (R-HSA-9018519) enrichment LogP [2]: −2.633
Formation of RNA Pol II elongation complex (R-HSA-112382) enrichment LogP [2]: −4.381
Initiation of Nuclear Envelope (NE) Reformation (R-HSA-2995383) enrichment LogP [2]: −3.748
Interferon gamma signaling (R-HSA-877300) enrichment LogP [2]: −2.545
Nervous system development (R-HSA-9675108) enrichment LogP [2]: −3.151
Neutrophil degranulation (R-HSA-6798695) enrichment LogP [2]: −2.465
Prolonged ERK activation events (R-HSA-169893) enrichment LogP [2]: −2.935
RHO GTPase Effectors (R-HSA-195258) enrichment LogP [2]: −3.726
Regulation of MECP2 expression and activity (R-HSA-9022692) enrichment LogP [2]: −6.229
SUMO E3 ligases SUMOylate target proteins (R-HSA-3108232) enrichment LogP [2]: −6.009
Signaling by NTRKs (R-HSA-166520) enrichment LogP [2]: −5.116
TRAF3-dependent IRF activation pathway (R-HSA-918233) enrichment LogP [2]: −2.935
Transcriptional Regulation by TP53 (R-HSA-3700989) enrichment LogP [2]: −7.191
Vesicle-mediated transport (R-HSA-5653656) enrichment LogP [2]: −6.611
p75 NTR receptor-mediated signalling (R-HSA-193704) enrichment LogP [2]: −6.512
